Test system: PANC-1 cells
Assay: Nude mice orthotopic pancreatic tumor model
Assay type: in vivo, Athymic Nude-Foxn1nu mice
Settings: after 30 days of treatment, GEM 50 mg/kg, MLT 400 mg/kg, CBD 10 mg/kg
Excerpt: Species and strain: Athymic Nude-Foxn1nu mice.
PANC-1 cells were thawed and cultured in DMEM (Dulbecco's Modified Eagle Medium) +2% L-glutamine +10% FBS (Fetal Bovine Serum), Penicillin/Streptomycin and maintain the cell culture in 100 mm Petri dish (Sarstedt, Germany).
A period of acclimation (at least 5 days) was allowed to mice before tumor inoculation. Before the inoculum, PANC-1 cells were detached with trypsin, counted with trypan blue and for each inoculum, 1×10^6 cells were suspended in 20 ul of PBS. Mice (n=20) were anesthetized with isoflurane (induction at 4% and maintenance at 2%) and cell solutions (20 μL, 1×10^6 cells) were orthotopically injected into the tail of the pancreas exploiting the echo-guided procedure. The 20 animals inoculated with tumor cells were divided in 4 groups (Table 6) when tumor size reaches a volume of approximately 20-30 mm^3 (tumor size was determined by ultrasound imaging analysis).
The animals were inoculated with 1×10^6 PANC-1 cells with VevoLAZR-X system by using echo-guided injection method. All animals were treated every three days for 30 days starting when tumor reached the volume of approximately 30 mm^3 (around 10-15 days from the inoculum). […]
Tumor volume was analyzed by using Vevo Lab software (Fujifilm Visualsonics).

`Nc1ccn([C@@H]2O[C@H](CO)[C@@H](O)C2(F)F)c(=O)n1` [GEM, Gemcitabine] was tested, and the tumor volumes (IP every three days, Vehicle 630,8) was 111,1 and the “effect on tumor volume” value (IP) was “high effect”.

Reference: US20240180872A1, “METHODS AND COMPOUNDS OF CANNABIDIOL, MELATONIN AND AKBA FOR TREATING PANCREATIC CANCER” (priority 2021, published 2024)
